From US9439430B2, “Method of controlling resistant harmful plants” (priority 2012, dated 2016)

Experiments:
KCHSC = test: Greenhouse test, post-emergence (PO) application, foliar effect; format: in vivo, Kochia scoparia; details: (A) 50, (B) 20, mixture 50 + 20 g of AS/ha, 3 weeks after application
Description: (§1) The 1:1 mixture of the two soil types was used specifically for cultivating small-seeded dicotyledonous weed since the standard field soil on its own tends to silt up, which may have an adverse effect on the emergence of small-seeded weeds. The resistances mentioned in the tables were confirmed beforehand in standard monitoring experiments. Nevertheless, the origins examined may have additional, hitherto unconfirmed resistances to various mechanisms of action.
(§2) The pots were then cultivated in a greenhouse (12-16 h light, temperature day 20-22° C., night 15-18° C.) until the time of application. The pots were treated at various BBCH stages of the seeds/plants on a laboratory track sprayer with spray liquors comprising the compositions according to the invention, mixtures of the prior art or the individual components. Application of the active compounds or active compound combinations and wetting agents formulated as WG, WP, EC or otherwise was carried out at the appropriate growth stages of the plants. The amount of water used for spray application was 100-600 l/ha. After the treatment, the plants were returned to the greenhouses and fertilized and watered as required. The pots were cultivated in a greenhouse (12-16 h light, temperature day 20-22° C., night 15-18° C.).
(§3) 3 weeks after the application, the foliar effect was evaluated on a scale of 0-100%:
(§4) 0%=no noticeable effect compared to untreated plants
(§5) 100%=full effect compared to untreated plants
(§6) The following abbreviations were used: • BBCH the BBCH code provides information about the morphological development stage of a plant. Officially, the abbreviation denotes the Biologische Bundesanstalt, Bundessortenamt and CHemische Industrie [Federal Biological Institute for Agriculture and Forestry, Federal Office for Crop Plant Varieties, Chemical Industry]. The range of BBCH 00-10 denotes the germination stages of the seeds until surface penetration. The range of BBCH 11-25 denotes the leaf development stages until stocking (corresponds to the number of tillers or side-shoots). • PE pre-emergence soil application; BBCH of the seeds/plants 00-10 • PO post-emergence application on the green parts of the plants; BBCH of the plants 11-25 • IU soil loamy silt—standard field soil • l/ha liters per hectare • S sensitive—the weed populations are sensitive to the active compounds tested • TSR target-site resistance. The weed populations comprise biotypes having a site-of-action-specific resistance, i.e. the binding site at the site of action is modified as a result of natural mutations in the gene sequence so that the active compounds are no longer able to bind, or bind in an unsatisfactory manner, and are therefore no longer able to act. • NTR non-target-site herbicide resistance; this is differentiated, inter alia, into EMR (Enhanced Metabolic Resistance) (the weed populations comprise biotypes having metabolic resistance, i.e. the plants are capable of metabolizing the active compounds more quickly via enzyme complexes, i.e. the active compounds are degraded more quickly in the plant), into reduced penetration into the plant, reduced translocation in the plant, accelerated excretion. […]

BRODI [1] = test: as above; format: in vivo, Bromus diformis; details: (A) 50, (B) 20, mixture 50 + 20 g of AS/ha, 3 weeks after application
Description: as §1, §2, §3, §4, §5, §6

BIDSU = test: as above; format: in vivo, Bidens subalternans; details: BIDSU sensitive, (A) 50, (B) 20, mixture 50 + 20 g of AS/ha, 3 weeks after application
Description: as §1, §2, §3, §4, §5, §6

AMATA [2] = test: as above; format: in vivo, Amaranthus rudis; details: (A) 50, (B) 20, mixture 50 + 20 g of AS/ha, 3 weeks after application
Description: as §1, §2, §3, §4, §5, §6

AMAPA = test: as above; format: in vivo, Amaranthus palmeri; details: AMAPA resistant - group B (TSR), C1 (TSR) and G (NTR), (A) 50, (B) 20, mixture 50 + 20 g of AS/ha, 3 weeks after application
Description: as §1, §2, §3, §4, §5, §6

EPHHL [3] = test: as above; format: in vivo, Euphorbia heterophylla; details: (A) 50, (B) 20, mixture 50 + 20 g of AS/ha, 3 weeks after application
Description: as §1, §2, §3, §4, §5, §6

ERICA = test: as above; format: in vivo, Erigeron canadensis; details: (A) 50, (B) 20, mixture 50 + 20 g of AS/ha, 3 weeks after application
Description: as §1, §2, §3, §4, §5, §6

BRODI [4] = test: Greenhouse test, pre-emergence (PE) soil application; format: in vivo, Bromus diformis; design: key: % effect: 0 = no effect, 100 = full effect vs untreated; details: group (B) compound alone, 20 g of AS/ha
Description: as §1, §2, §3, §4, §5, §6

AMATA [5] = test: as above; format: in vivo, Amaranthus rudis; design: key: % effect: 0 = no effect, 100 = full effect vs untreated; details: group (B) compound alone, 20 g of AS/ha
Description: as §1, §2, §3, §4, §5, §6

EPHHL [6] = test: as above; format: in vivo, Euphorbia heterophylla; design: key: % effect: 0 = no effect, 100 = full effect vs untreated; details: group (B) compound alone, 20 g of AS/ha
Description: as §1, §2, §3, §4, §5, §6

APESV = test: as above; format: in vivo, Apera spica-venti; design: key: % effect: 0 = no effect, 100 = full effect vs untreated; details: group (B) compound alone, 20 g of AS/ha
Description: as §1, §2, §3, §4, §5, §6

LOLSS = test: as above; format: in vivo, Lolium spp.; design: key: % effect: 0 = no effect, 100 = full effect vs untreated plants; details: group (B) compound alone, 20 g of AS/ha
Description: as §1, §2, §3, §4, §5, §6

ERIBO = test: as above; format: in vivo, Erigeron bonariensis; design: key: % effect: 0 = no effect, 100 = full effect vs untreated; details: group (B) compound alone, 20 g of AS/ha
Description: as §1, §2, §3, §4, §5, §6

[7] = test system: TTTTT (all resistant and sensitive biotypes); test: Greenhouse test, PO application, mean over all resistant and sensitive biotypes; format: in vivo; details: (A) 50, (B) 20, mixture 50 + 20 g of AS/ha; for TTTTT resistant mean (effect): mean of resistant biotypes (n = 17 or n = 15); for TTTTT sensitive mean (effect): mean of sensitive biotypes (n = 11)
Description: as §1, §2, §3, §4, §5, §6

[8] = test system: TTTTT (all resistant and sensitive biotypes); test: Greenhouse test, PE application, mean over all resistant and sensitive biotypes; format: in vivo; details: (A) 12.5, (B) 20, mixture 12.5 + 20 g of AS/ha; for TTTTT resistant mean (effect): mean of resistant biotypes (n = 16); for TTTTT sensitive mean (effect): mean of sensitive biotypes (n = 11)
Description: as §1, §2, §3, §4, §5, §6

[9] = KCHSC resistant - group B (TSR)
[10] = BRODI resistant - group A (TSR), B (NTR) and G (NTR)
[11] = AMATA resistant - group B (TSR), C1 (TSR)
[12] = EPHHL resistant - group B (TSR) and G (NTR)
[13] = EPHHL resistant - group B (TSR)
[14] = ERICA resistant - group B (NA) and G (NTR)

Structure (SMILES) | foliar effect (KCHSC; [9]) [%] | foliar effect (KCHSC; KCHSC sensitive) [%] | foliar effect (BRODI [1]; [10]) [%] | foliar effect (BRODI [1]; BRODI sensitive) [%] | foliar effect (BIDSU) [%] | foliar effect (AMATA [2]; [11]) [%] | foliar effect (AMATA [2]; AMATA sensitive) [%] | foliar effect (AMAPA) [%] | foliar effect (EPHHL [3]; [12]) [%] | foliar effect (EPHHL [3]; [13]) [%] | foliar effect (EPHHL [3]; EPHHL sensitive) [%] | foliar effect (ERICA; [14]) [%] | foliar effect (ERICA; ERICA sensitive) [%] | effect on BRODI resistant - group A (TSR), B (NTR) and G (NTR) (BRODI [4]) | effect on BRODI sensitive (BRODI [4]) | effect on AMATA sensitive (AMATA [5]) | effect on EPHHL resistant - group B (TSR) (EPHHL [6]) | effect on EPHHL resistant - group B (TSR) and G (NTR) (EPHHL [6]) | effect on EPHHL sensitive (EPHHL [6]) | effect on APESV resistant - group B (TSR, NTR) and K1/3 (NA) (APESV) | further results
COC(=O)c1csc(C)c1S(=O)(=O)NC(=O)n1nc(OC)n(C)c1=O [(B5), thiencarbazone-methyl] | 0 | 90 | 50 | 95 | 60 | 40 | 30 | 0 | 30 | 20 | 70 | 60 | 70 | 70 | 70 | 60 | 0 | 0 | 30 | 20 | effect on AMATA resistant - group B (TSR), C1 (TSR) (AMATA [5]): 40; effect on APESV sensitive (APESV): 95; effect on LOLSS resistant - group G (NTR) (LOLSS): 70; effect on LOLSS resistant group A (TSR, NTR), B (NTR) and C2 (NA) (LOLSS): 80; effect on LOLSS resistant group A (TSR, NTR), B (TSR, NTR) and C2 (NA) (LOLSS): 20; effect on LOLSS sensitive (LOLSS): 75; effect on ERIBO resistant - group B (NA) and G (NTR) (ERIBO): 0; effect on ERIBO sensitive (ERIBO): 60; TTTTT resistant mean (effect) [7]: 25%; TTTTT sensitive mean (effect) [7]: 76%; TTTTT resistant mean (effect) [8]: 22%; TTTTT sensitive mean (effect) [8]: 73%
COc1cc(OC)nc(NC(=O)NS(=O)(=O)c2cc(NC=O)ccc2C(=O)N(C)C)n1 [(B2), foramsulfuron] | 0 | 90 | 75 | 100 | 30 | 90 | 40 | 40 | 40 | 30 | 80 | 40 | 50 | 70 | 75 | 60 | 0 | 0 | 30 | 20 | effect on APESV sensitive (APESV): 95; effect on LOLSS resistant - group G (NTR) (LOLSS): 65; effect on LOLSS resistant group A (TSR, NTR), B (NTR) and C2 (NA) (LOLSS): 80; effect on LOLSS resistant group A (TSR, NTR), B (TSR, NTR) and C2 (NA) (LOLSS): 60; effect on LOLSS sensitive (LOLSS): 78; effect on ERIBO resistant - group B (NA) and G (NTR) (ERIBO): 0; effect on ERIBO sensitive (ERIBO): 100; TTTTT resistant mean (effect) [7]: 34%; TTTTT sensitive mean (effect) [7]: 74%; TTTTT resistant mean (effect) [8]: 22%; TTTTT sensitive mean (effect) [8]: 73%
